From patent publication US9447136B2, “Semisynthetic derivatives of Nystatin A1” (BLIRT S.A., priority 2012, dated 2016)
≈ marks a conversion by molar mass, not a printed value. Like-named read-outs stand apart in the source and are kept apart here.

What was measured:
Human erythrocytes = test: Hemotoxicity (hemolytic activity)
Procedure, shortened: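 Human erythrocytes in saline (2×10^7/ml) were incubated with serially diluted compound at 37 °C for 30 min, then centrifuged. Released hemoglobin was read as A540 against 0.1% Triton X-100 as full hemolysis. EH50 is the interpolated concentration giving 50% of the control A540.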

Candida albicans B3 = test: Antifungal activity towards resistant (MDR) strains; format: cell-based; details: fluconazole sensitive, parent strain for B4
Description: (§1) The determination of antifungal activity was performed by the serial dilutions method in buffered RPMI 1640 medium, in a 96-wells microplates, according to the standard procedure (National Committee for Clinical Laboratory Standards. Reference method for broth dilution antifungal susceptibility testing of yeast, approved standard, 2nd ed. M27-A2 vol. 22 Wayne, Pa., 2002). The optical density of cells suspension was measured using a microplates reader (Victor^3, Perkin-Elmer) at the wavelength λ=660 nm (A660). On the basis of received results the diagrams on interrelation between the A660 value and the concentration of tested compound were made. From these graphs MIC values were read, that are the concentrations of tested compounds, in the presence at which A660 value is at most 20% of A660 value measured in control sample.

Candida albicans 5674 = test: as above; format: cell-based; details: C. albicans 5674 overexpressing CDR1 and CDR2
Description: as §1

Candida albicans Gu5 = test: as above; format: cell-based; details: fluconazole-resistant due to the overexpression of CDR1 and CDR2
Description: as §1

Candida albicans F2 = test: as above; format: cell-based; details: fluconazole sensitive, parent strain for F5
Description: as §1

Candida albicans F5 = test: as above; format: cell-based; details: fluconazole-resistant due to the overexpression of CaMDR1 and ERG11
Description: as §1

Candida albicans STY7 = test: as above; format: cell-based; details: 5674 mutant derivative, deletion of CDR2
Description: as §1

Candida albicans STY31 = test: as above; format: cell-based; details: 5674 mutant derivative, deletion of CDR1 and CDR2
Description: as §1

Candida albicans B4 = test: as above; format: cell-based; details: fluconazole-resistant due to the overexpression of CaMDR1
Description: as §1

Candida albicans Gu4 = test: as above; format: cell-based; details: fluconazole sensitive, parent strain for Gu5
Description: as §1

Candida albicans STY19 = test: as above; format: cell-based; details: 5674 mutant derivative, deletion of CDR1
Description: as §1

LLC-PK1 = test: Cytotoxic activity against mammalian cells in tissue culture (MTT); format: cell-based, pig
Procedure, shortened: (§2)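 Cells at 1.2×10^4/well were exposed to serial 2× DMSO dilutions for 120 h at 37 °C: CCRF-CEM in RPMI 1640 + 10% FBS, HepG2 in MEM + 10% FBS, LLC-PK1 in Medium 199 + 3% FBS. MTT was added for 4 h and A540 read. IC50 is the concentration halving A540 versus DMSO control.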

Candida arborea KKP 319 = test: Antifungal activity in vitro, serial dilution in RPMI 1640; format: cell-based; details: Table 2B
Procedure, shortened: (§3)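 Broth microdilution in buffered RPMI 1640, pH 7.0, following NCCLS M27-A2. Growth was read as optical density at 531 nm. IC50 was interpolated from A531-versus-concentration plots as the concentration giving 50% of control A531; MIC was the lowest concentration giving at most 20% of control A531.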

[1] = test system: Candida lipolytica KKP 322; test: as above; format: cell-based; details: Table 2B
Procedure, shortened: as §3

Candida krusei DSM 6128 = test: as above; format: cell-based; details: Table 2A; RPMI 1640, pH 7.0
Procedure, shortened: as §3

[2] = test system: Candida pseudotropicalis KKP 324; test: as above; format: cell-based; details: Table 2B
Procedure, shortened: as §3

[3] = test system: Candida parapsilosis DSM 5784; test: as above; format: cell-based; details: Table 2B
Procedure, shortened: as §3

[4] = test system: Candida glabrata DSM 11226; test: as above; format: cell-based; details: Table 2A; RPMI 1640, pH 7.0
Procedure, shortened: as §3

[5] = test system: Trichoderma viride LOCK E159; test: as above; format: cell-based; details: Table 2B
Procedure, shortened: as §3

[6] = test system: Candida albicans ATCC 10231; test: as above; format: cell-based; details: for Antifungal activity Candida albicans ATCC 10231 IC50 / Antifungal activity Candida albicans ATCC 10231 MIC: Table 2A, RPMI 1640, pH 7.0; for Antifungal activity Candida albicans ATCC 10231 IC50: A531 50% of control; for Antifungal activity Candida albicans ATCC 10231 MIC: A531 at most 20% of control; for MIC Candida albicans ATCC 10231: Table 2B
Procedure, shortened: as §3

[7] = test system: Candida tropicalis KKP 334; test: as above; format: cell-based; details: Table 2A; RPMI 1640, pH 7.0
Procedure, shortened: as §3

[8] = test system: Aspergillus niger LOCK E201; test: as above; format: cell-based; details: Table 2B
Procedure, shortened: as §3

[9] = test system: Candida dubliniensis CBS 7987; test: as above; format: cell-based; details: Table 2B
Procedure, shortened: as §3

[10] = test system: Candida stellatoidea CBS 1905; test: as above; format: cell-based; details: Table 2B
Procedure, shortened: as §3

[11] = test system: Saccharomyces cerevisiae ATCC 9763; test: as above; format: cell-based; details: for Antifungal activity Saccharomyces cerevisiae ATCC 9763 MIC: Table 2A, RPMI 1640, pH 7.0, A531 at most 20% of control; for MIC Saccharomyces cerevisiae ATCC 9763: Table 2B
Procedure, shortened: as §3

[12] = test system: Candida quilliermondii DSM 11947; test: as above; format: cell-based; details: Table 2B
Procedure, shortened: as §3

CCRF-CEM = test: Cytotoxic activity against mammalian cells in tissue culture (MTT); format: cell-based, human
Procedure, shortened: as §2

HepG2 = test: as above; format: cell-based, human
Procedure, shortened: as §2

Molecule	MIC Candida albicans B3 (Candida albicans B3)	MIC Candida albicans 5674 (Candida albicans 5674)	MIC Candida albicans Gu5 (Candida albicans Gu5)	MIC Candida albicans F2 (Candida albicans F2)	MIC Candida albicans F5 (Candida albicans F5)	MIC Candida albicans STY7 (Candida albicans STY7)	MIC Candida albicans STY31 (Candida albicans STY31)	MIC Candida albicans B4 (Candida albicans B4)	MIC Candida albicans Gu4 (Candida albicans Gu4)	MIC Candida albicans STY19 (Candida albicans STY19)	MIC Candida arborea KKP 319 (Candida arborea KKP 319)	MIC Candida lipolytica KKP 322 [1]	Antifungal activity Candida krusei DSM 6128 MIC (Candida krusei DSM 6128)	MIC Candida pseudotropicalis KKP 324 [2]	MIC Candida parapsilosis DSM 5784 [3]	Antifungal activity Candida glabrata DSM 11226 MIC [4]	MIC Trichoderma viride LOCK E159 [5]	Antifungal activity Candida albicans ATCC 10231 IC50 [6]	Antifungal activity Candida albicans ATCC 10231 MIC [6]	MIC Candida albicans ATCC 10231 [6]	also measured
CCN(CC)[C@@H](Cc1ccccc1)C(=O)NC1C(O)C(C)OC(O[C@H]2/C=C/C=C/C=C/C=C/CC/C=C/C=C/[C@H](C)[C@@H](O)[C@@H](C)[C@H](C)OC(=O)C[C@H](O)C[C@H](O)C[C@H](O)CC[C@@H](O)[C@H](O)CC3(O)C[C@H](O)[C@@H](C(=O)O)[C@H](C2)O3)C1O (stereo partly drawn) [Compound N46, N—[L-(N,N-diethyl)phenylalanyl]nystatin A1]	8 µg/mL (≈ 7.08 µM)	32 µg/mL (≈ 28.3 µM)	16 µg/mL (≈ 14.2 µM)	16 µg/mL (≈ 14.2 µM)	16 µg/mL (≈ 14.2 µM)	32 µg/mL (≈ 28.3 µM)	32 µg/mL (≈ 28.3 µM)	8 µg/mL (≈ 7.08 µM)	8 µg/mL (≈ 7.08 µM)	32 µg/mL (≈ 28.3 µM)	32 µg/mL (≈ 28.3 µM)	16 µg/mL (≈ 14.2 µM)	8 µg/mL	16 µg/mL (≈ 14.2 µM)	32 µg/mL (≈ 28.3 µM)	8 µg/mL	16 µg/mL (≈ 14.2 µM)	2.83 µg/mL	4 µg/mL	4 µg/mL (≈ 3.54 µM)	% of hemolysis at the concentration 60 μg ml^−1 (Human erythrocytes): 0.37%; Cytotoxicity IC50 LLC-PK1 (LLC-PK1; LLC-PK1, 120 h, MTT): >100 µg/mL; Antifungal activity Candida tropicalis KKP 334 MIC [7]: 4 µg/mL; MIC Aspergillus niger LOCK E201 [8]: 32 µg/mL (≈ 28.3 µM); MIC Candida dubliniensis CBS 7987 [9]: 16 µg/mL (≈ 14.2 µM); MIC Candida stellatoidea CBS 1905 [10]: 8 µg/mL (≈ 7.08 µM); Antifungal activity Saccharomyces cerevisiae ATCC 9763 MIC [11]: 4 µg/mL; MIC Saccharomyces cerevisiae ATCC 9763 [11]: 4 µg/mL (≈ 3.54 µM); MIC Candida quilliermondii DSM 11947 [12]: 32 µg/mL (≈ 28.3 µM); Cytotoxicity IC50 CCRF-CEM (CCRF-CEM; CCRF-CEM, 120 h, MTT): >100 µg/mL; Cytotoxicity IC50 HepG2 (HepG2; HepG2, 120 h, MTT): >100 µg/mL
CC1OC(O[C@H]2/C=C/C=C/C=C/C=C/CC/C=C/C=C/[C@H](C)[C@@H](O)[C@@H](C)[C@H](C)OC(=O)C[C@H](O)C[C@H](O)C[C@H](O)CC[C@@H](O)[C@H](O)CC3(O)C[C@H](O)[C@@H](C(=O)O)[C@H](C2)O3)C(O)C(NC(=O)[C@H](N)CCC(=O)OC(C)(C)C)C1O (stereo partly drawn) [Compound N37, N-D-(O-tert-butyl)glutamylnystatin A1]	8 µg/mL (≈ 7.2 µM)	32 µg/mL (≈ 28.8 µM)	8 µg/mL (≈ 7.2 µM)	16 µg/mL (≈ 14.4 µM)	16 µg/mL (≈ 14.4 µM)	32 µg/mL (≈ 28.8 µM)	32 µg/mL (≈ 28.8 µM)	8 µg/mL (≈ 7.2 µM)	8 µg/mL (≈ 7.2 µM)	32 µg/mL (≈ 28.8 µM)	32 µg/mL (≈ 28.8 µM)	16 µg/mL (≈ 14.4 µM)	8 µg/mL	8 µg/mL (≈ 7.2 µM)	16 µg/mL (≈ 14.4 µM)	8 µg/mL	32 µg/mL (≈ 28.8 µM)	2.73 µg/mL	4 µg/mL	4 µg/mL (≈ 3.6 µM)	% of hemolysis at the concentration 60 μg ml^−1 (Human erythrocytes): 0.04%; Cytotoxicity IC50 LLC-PK1 (LLC-PK1): 85.5 ± 4.30 µg/mL; Antifungal activity Candida tropicalis KKP 334 MIC [7]: 4 µg/mL; MIC Aspergillus niger LOCK E201 [8]: 16 µg/mL (≈ 14.4 µM); MIC Candida dubliniensis CBS 7987 [9]: 8 µg/mL (≈ 7.2 µM); MIC Candida stellatoidea CBS 1905 [10]: 8 µg/mL (≈ 7.2 µM); Antifungal activity Saccharomyces cerevisiae ATCC 9763 MIC [11]: 4 µg/mL; MIC Saccharomyces cerevisiae ATCC 9763 [11]: 4 µg/mL (≈ 3.6 µM); MIC Candida quilliermondii DSM 11947 [12]: 16 µg/mL (≈ 14.4 µM); Cytotoxicity IC50 CCRF-CEM (CCRF-CEM): >100 µg/mL; Cytotoxicity IC50 HepG2 (HepG2): >100 µg/mL
N-fructosyl-N-methylnystatin A1 [Compound N28]	8 µg/mL	16 µg/mL	16 µg/mL	8 µg/mL	16 µg/mL	16 µg/mL	16 µg/mL	8 µg/mL	8 µg/mL	16 µg/mL	32 µg/mL	8 µg/mL	16 µg/mL	8 µg/mL	16 µg/mL	16 µg/mL	16 µg/mL	5.80 µg/mL	8 µg/mL	8 µg/mL	Hemotoxicity BEH50 (Human erythrocytes; human erythrocytes, 37° C., 30 minutes, concentration causing 50% hemolysis, maximum concentration 300 μg/ml): >250 µg/mL; % of hemolysis at the concentration 60 μg ml^−1 (Human erythrocytes; human erythrocytes, 60 μg ml^−1): 0.17%; Cytotoxicity IC50 LLC-PK1 (LLC-PK1; LLC-PK1, 120 h, MTT): >100 µg/mL; Antifungal activity Candida tropicalis KKP 334 MIC [7]: 8 µg/mL; MIC Aspergillus niger LOCK E201 [8]: 16 µg/mL; MIC Candida dubliniensis CBS 7987 [9]: 8 µg/mL; MIC Candida stellatoidea CBS 1905 [10]: 8 µg/mL; Antifungal activity Saccharomyces cerevisiae ATCC 9763 MIC [11]: 4 µg/mL; MIC Saccharomyces cerevisiae ATCC 9763 [11]: 4 µg/mL; MIC Candida quilliermondii DSM 11947 [12]: 16 µg/mL; Cytotoxicity IC50 CCRF-CEM (CCRF-CEM; CCRF-CEM, 120 h, MTT): >100 µg/mL; Cytotoxicity IC50 HepG2 (HepG2; HepG2, 120 h, MTT): >100 µg/mL
